According to article PMC10630888, “Nuclear ERK1/2 signaling potentiation enhances neuroprotection and cognition via Importinα1/KPNA2” (EMBO Molecular Medicine, 2023):
“And” between values parts separate entries of the source, which are not always exact repeats. Identical values can stand only once.

What was measured:
pERK1/2 = pERK1/2 in dorsal striatum, MPTP model; assay type: in vivo, mouse
Description: Immunohistochemistry was performed as described in Papale et al ([2016]). Briefly, 1 h after blocking in 5% normal goat serum and 0.1% Triton X‐100 solution, free‐floating sections were incubated overnight at 4°C with one of the following primary antibodies: anti‐phospho‐p44/42 MAP kinase (Thr202/Tyr204) (1:200, Cell Signaling Technology #9101), anti‐phospho–Elk‐1 (Ser383) (1:100, Cell Signaling #9181), anti‐phospho‐Kv4.2 (Thr607)‐R (1:100, Santa Cruz sc22254‐R), anti‐phospho‐MSK‐1 (1:100 Cell Signaling Technology #9595), anti‐phospho‐MEK1/2 (Ser218/222) (1:100, sc‐7995 Santa Cruz Biotechnology), c‐Fos (1:100, sc‐52 Santa Cruz Biotechnology), tyrosine Hydroxylase (monoclonal 1:1,000, Sigma Aldrich, Italy) and anti‐DARPP‐32 (H3) (1:100, Santa Cruz Biotechnology, #sc‐271111) overnight at 4°C. […]
For in vivo immunohistochemistry experiments, images were acquired from the dorsal striatum using a Leica DM IRB microscope under a 20× objective. The number of p‐ERK, p‐MSK‐1, p‐ELK, p‐MEK‐1, p‐VG K+, c‐Fos, and DARPP‐32 positive cells was counted in 2–3 consecutive sections per mouse, bilaterally and averaged across the sections using the ImageJ software by a blind investigator to the condition. Estimation of nigral cell loss was assessed by quantifying the number of TH‐immunopositive neurons of the SNc in 360 μm‐spaced sections for each animal. […]

[1] = biological target: T1, ERK1/ERK2-KPNA5 interaction (Homo sapiens, UniProt O15131); assay: Proximity ligation assay, ERK1 or ERK2 with KPNA5 in HEK293 cells; assay type: binding; conditions: HEK293 cells pretreated with RB5 50 μM for 1 h
T1 construct: host or cells: HEK293
T1 sequence (O15131 whole entry): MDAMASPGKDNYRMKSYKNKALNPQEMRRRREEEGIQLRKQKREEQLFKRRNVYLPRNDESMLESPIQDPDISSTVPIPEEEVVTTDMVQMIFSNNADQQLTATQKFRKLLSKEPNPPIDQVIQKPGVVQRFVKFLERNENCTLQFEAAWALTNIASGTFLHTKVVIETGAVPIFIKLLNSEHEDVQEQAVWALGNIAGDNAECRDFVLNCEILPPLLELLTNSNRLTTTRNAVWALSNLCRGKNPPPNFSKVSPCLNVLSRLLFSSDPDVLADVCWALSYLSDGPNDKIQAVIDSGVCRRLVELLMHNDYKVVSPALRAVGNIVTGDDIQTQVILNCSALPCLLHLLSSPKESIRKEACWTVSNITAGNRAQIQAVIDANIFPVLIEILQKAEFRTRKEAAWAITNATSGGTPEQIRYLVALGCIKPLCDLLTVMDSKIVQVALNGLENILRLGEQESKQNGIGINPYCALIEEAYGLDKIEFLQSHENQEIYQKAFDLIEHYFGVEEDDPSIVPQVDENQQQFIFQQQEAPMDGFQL
Description: 1.5 × 10^6 HEK293 cells were seeded onto coverslips in 60 mm dishes. 24 h later, transfection was carried out using calcium phosphate method. 0.5 μg of pCMVTNT‐T7‐KPNA1 (Addgene, #26677), 0.5 μg of pCMVTNT‐T7‐KPNA2 (Addgene, #26678), 0.5 μg of pCMVTNT‐T7‐KPNA3 (Addgene, #26679), 0.5 μg of pCMVTNT‐T7‐KPNA4 (Addgene, #26680), 0.5 μg of pCMVTNT‐T7‐KPNA5 (Addgene, #26681), 1.5 μg of pcDNA3.1+/C‐(K)‐DYK‐KPNA6 (Genscript, #OHu29951D), 0.5 μg of pCMVTNT‐T7‐KPNA7 (Addgene, #26683), 5 μg of pcDNA3.1 +/C‐(K)‐DYK‐IPO7 (Genscript, #OHu11630), 0.5 μg pCMV5‐3HA‐RanBP5 (MRC PPU, University of Dundee, #DU7262), 0.5 μg pCMV5‐3HA‐ KPNB1 (MRC PPU, University of Dundee, #DU5332) were mixed with one of the following plasmids: 0.01 μg of 277.pCCLsin.PPT.hPGK.GFP.PRE, 0.25 μg of 277.pCCLsin.PPT.hPGK.ERK1‐GFP.PRE or 0.25 μg of 277.pCCLsin.PPT.hPGK.ERK2‐GFP.PRE. After approximately 16 h, cell culture medium was replaced with fresh medium. On the following day, cells were washed three times in PBS and fixed in 4% PFA for 15 min. […]
The proximity ligation assay was carried out following the manufacturer's instructions. […] The number of GFP‐positive cells, DAPI‐stained cells, and red dots was counted manually using Fiji‐ImageJ software.

With “GRKKRRQRRRPPQGGGGGEPRRTEGVGPGVPGEVEMVKGQPFDV [RB5, six D-amino acids, acetylated N-terminus]” the “pERK1/2 in dorsal striatum of MPTP-treated animals” value (pERK1/2; MPTP 20 mg/kg i.p. and RB5 20 mg/kg i.p. for 4 days) was “further enhanced”, the “pERK1/2 in dorsal striatum (Fig 5 panel i)” value (pERK1/2; MPTP model, individual animals) was 320.238 and 468.254 and 523.81 and 295.238 and 784.921 and 378.571 and 564.683 and 633.333 and 362.302 and 348.413 and 268.452 and 448.016 and 342.46 and 421.429 and the “ERK1 or ERK2 binding to KPNA5 (PLA)” value [1] was “unaffected”.
